Data reported in PubChem BioAssay (NCI).
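How tested: cells in 96-well plates exposed to compound for 48 hours at five concentrations. Here, GI50 denotes the concentration required for 50% inhibition of growth. At the TGI there is no net growth.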

Experiments:
Assay in all cases: inhibition of tumour cell growth, NCI panel, 48 h
SW-620 colon = test system: SW-620 colon
M14 melanoma = test system: M14 melanoma
MDA-MB-435 = test system: MDA-MB-435
CAKI-1 renal = test system: CAKI-1 renal
RXF 393 renal = test system: RXF 393 renal
LOX IMVI melanoma = test system: LOX IMVI melanoma
HCT-116 colon = test system: HCT-116 colon
A498 renal = test system: A498 renal
TK-10 renal = test system: TK-10 renal
SK-MEL-5 melanoma = test system: SK-MEL-5 melanoma
SNB-75 CNS = test system: SNB-75 CNS
SN12C renal = test system: SN12C renal
PC-3 prostate = test system: PC-3 prostate
BT-549 breast = test system: BT-549 breast
SR leukemia = test system: SR leukemia
K-562 leukemia = test system: K-562 leukemia
HOP-92 NSCLC = test system: HOP-92 NSCLC
UACC-257 melanoma = test system: UACC-257 melanoma
T-47D breast = test system: T-47D breast
A549 NSCLC = test system: A549 NSCLC
OVCAR-8 ovarian = test system: OVCAR-8 ovarian
KM12 colon = test system: KM12 colon
NCI-H23 lung = test system: NCI-H23 lung
HOP-62 NSCLC = test system: HOP-62 NSCLC
SF-295 CNS = test system: SF-295 CNS
NCI/ADR-RES ovarian = test system: NCI/ADR-RES ovarian
SNB-19 CNS = test system: SNB-19 CNS
CCRF-CEM leukemia = test system: CCRF-CEM leukemia
MDA-MB-231 breast = test system: MDA-MB-231 breast
UO-31 renal = test system: UO-31 renal
COLO 205 colon = test system: COLO 205 colon
UACC-62 melanoma = test system: UACC-62 melanoma
DU-145 prostate = test system: DU-145 prostate
OVCAR-3 ovarian = test system: OVCAR-3 ovarian
HCT-15 colon = test system: HCT-15 colon
MCF7 breast = test system: MCF7 breast
OVCAR-4 ovarian = test system: OVCAR-4 ovarian
NCI-H460 lung = test system: NCI-H460 lung
NCI-H522 lung = test system: NCI-H522 lung
786-0 renal = test system: 786-0 renal
HL-60(TB) leukemia = test system: HL-60(TB) leukemia
IGROV1 ovarian = test system: IGROV1 ovarian
MALME-3M melanoma = test system: MALME-3M melanoma
U251 CNS = test system: U251 CNS
SK-OV-3 ovarian = test system: SK-OV-3 ovarian
HS 578T breast = test system: HS 578T breast
MOLT-4 leukemia = test system: MOLT-4 leukemia
RPMI-8226 leukemia = test system: RPMI-8226 leukemia
SF-268 CNS = test system: SF-268 CNS
HT29 colon = test system: HT29 colon
NCI-H226 lung = test system: NCI-H226 lung
HCC-2998 colon = test system: HCC-2998 colon

Structure (SMILES): Clc1ccc2c(N3CCN(c4ccnc(NC5CCCCC5)n4)CC3)ccnc2c1
- GI50 (SW-620 colon): 1.68 µM
- TGI (SW-620 colon): 3.72 µM
- GI50 (M14 melanoma): 1.78 µM
- TGI (M14 melanoma): 3.42 µM
- GI50 (MDA-MB-435): 1.91 µM
- TGI (MDA-MB-435): 3.88 µM
- GI50 (CAKI-1 renal): 2.21 µM
- TGI (CAKI-1 renal): 6.87 µM
- GI50 (RXF 393 renal): 1.84 µM
- TGI (RXF 393 renal): 3.54 µM
- GI50 (LOX IMVI melanoma): 1.92 µM
- TGI (LOX IMVI melanoma): 3.46 µM
- GI50 (HCT-116 colon): 1.36 µM
- TGI (HCT-116 colon): 2.8 µM
- GI50 (A498 renal): 1.79 µM
- TGI (A498 renal): 8.22 µM
- GI50 (TK-10 renal): 2.29 µM
- TGI (TK-10 renal): 5.16 µM
- GI50 (SK-MEL-5 melanoma): 1.7 µM
- TGI (SK-MEL-5 melanoma): 3.14 µM
- GI50 (SNB-75 CNS): 2.16 µM
- TGI (SNB-75 CNS): 6.74 µM
- GI50 (SN12C renal): 1.79 µM
- TGI (SN12C renal): 3.6 µM
- GI50 (PC-3 prostate): 1.56 µM
- TGI (PC-3 prostate): 3.3 µM
- GI50 (BT-549 breast): 1.75 µM
- TGI (BT-549 breast): 3.31 µM
- GI50 (SR leukemia): 1.83 µM
- TGI (SR leukemia): 4.48 µM
- GI50 (K-562 leukemia): 2.19 µM
- TGI (K-562 leukemia): 5.43 µM
- GI50 (HOP-92 NSCLC): 1.68 µM
- TGI (HOP-92 NSCLC): 4.99 µM
- GI50 (UACC-257 melanoma): 1.95 µM
- TGI (UACC-257 melanoma): 4.11 µM
- GI50 (T-47D breast): 2.11 µM
- TGI (T-47D breast): 5.5 µM
- GI50 (A549 NSCLC): 3.17 µM
- TGI (A549 NSCLC): 10.8 µM
- GI50 (OVCAR-8 ovarian): 3.27 µM
- TGI (OVCAR-8 ovarian): 12.6 µM
- GI50 (KM12 colon): 2.16 µM
- TGI (KM12 colon): 4.49 µM
- GI50 (NCI-H23 lung): 3.4 µM
- TGI (NCI-H23 lung): 9.71 µM
- GI50 (HOP-62 NSCLC): 2.35 µM
- TGI (HOP-62 NSCLC): 5.73 µM
- GI50 (SF-295 CNS): 1.91 µM
- TGI (SF-295 CNS): 3.79 µM
- GI50 (NCI/ADR-RES ovarian): 2.44 µM
- TGI (NCI/ADR-RES ovarian): 6.66 µM
- GI50 (SNB-19 CNS): 2.47 µM
- TGI (SNB-19 CNS): 7.33 µM
- GI50 (CCRF-CEM leukemia): 2.07 µM
- TGI (CCRF-CEM leukemia): 6.07 µM
- GI50 (MDA-MB-231 breast): 2.01 µM
- TGI (MDA-MB-231 breast): 3.97 µM
- GI50 (UO-31 renal): 1.31 µM
- TGI (UO-31 renal): 2.87 µM
- GI50 (COLO 205 colon): 1.77 µM
- TGI (COLO 205 colon): 3.43 µM
- GI50 (UACC-62 melanoma): 1.7 µM
- TGI (UACC-62 melanoma): 3.26 µM
- GI50 (DU-145 prostate): 3.78 µM
- TGI (DU-145 prostate): 13 µM
- GI50 (OVCAR-3 ovarian): 1.74 µM
- TGI (OVCAR-3 ovarian): 3.49 µM
- GI50 (HCT-15 colon): 2.26 µM
- TGI (HCT-15 colon): 6.74 µM
- GI50 (MCF7 breast): 1.76 µM
- TGI (MCF7 breast): 4.02 µM
- GI50 (OVCAR-4 ovarian): 2.56 µM
- TGI (OVCAR-4 ovarian): 11.2 µM
- GI50 (NCI-H460 lung): 2.05 µM
- TGI (NCI-H460 lung): 4.23 µM
- GI50 (NCI-H522 lung): 1.97 µM
- TGI (NCI-H522 lung): 3.84 µM
- GI50 (786-0 renal): 1.69 µM
- TGI (786-0 renal): 3.14 µM
- GI50 (HL-60(TB) leukemia): 2.22 µM
- TGI (HL-60(TB) leukemia): 5.07 µM
- GI50 (IGROV1 ovarian): 2.27 µM
- TGI (IGROV1 ovarian): 5.04 µM
- GI50 (MALME-3M melanoma): 1.98 µM
- TGI (MALME-3M melanoma): 4.02 µM
- GI50 (U251 CNS): 1.62 µM
- TGI (U251 CNS): 3 µM
- GI50 (SK-OV-3 ovarian): 4.2 µM
- TGI (SK-OV-3 ovarian): 14 µM
- GI50 (HS 578T breast): 2.41 µM
- TGI (HS 578T breast): 8.08 µM
- GI50 (MOLT-4 leukemia): 2.13 µM
- TGI (MOLT-4 leukemia): 5.47 µM
- GI50 (RPMI-8226 leukemia): 1.81 µM
- TGI (RPMI-8226 leukemia): 4.69 µM
- GI50 (SF-268 CNS): 3.65 µM
- TGI (SF-268 CNS): 13.3 µM
- GI50 (HT29 colon): 1.85 µM
- TGI (HT29 colon): 4.06 µM
- GI50 (NCI-H226 lung): 3.41 µM
- TGI (NCI-H226 lung): 16.6 µM
- GI50 (HCC-2998 colon): 1.93 µM
- TGI (HCC-2998 colon): 3.88 µM
